The target of experiment [1] is Human JNK1α1 (Homo sapiens (Human), UniProt P45983). As to the kind of experiment: JNK assay in vitro: phosphorylation of GST-ATF2 (19-96) with [γ-33P] ATP, JNK1. The format is biochemical. The following applies: 2 nM enzyme, 1 μM ATF2, 6 μM ATP (Km), 30° C. 30 min. The protocol:
JNK activity was measured by phosphorylation of GST-ATF2 (19-96) with [γ-^33P] ATP. […] Human JNK2α2 assay contains 1 nM enzyme, 1 μM ATF2, 8 μM ATP with 1 uCi [γ-^33P] ATP. Human JNK1α1 assay contains 2 nM enzyme, 1 μM ATF2, 6 μM ATP with 1 μCi [γ-^33P] ATP. […] ATP. The enzyme assay was carried out in the presence or absence of several compound concentrations. JNK and compound were pre-incubated for 10 min., followed by initiation of the enzymatic reaction by adding ATP and the substrate. The reaction mixture was incubated at 30° C. for 30 min. […] The incorporation of ^33P into ATF2 was quantified on a microplate scintillation counter (Packard Topcount). Compound inhibition potency on JNK was measured by IC50 value generated from ten concentration inhibition curves fitted into the 3-parameter model: % inhibition=Maximum/(1+(IC50/[Inhibitor])^slope). Data were analyzed on Microsoft Excel for parameter estimation.

In experiment [2] the target is Human JNK2α2 (Homo sapiens (Human), UniProt P45984). Put plainly: JNK assay in vitro: phosphorylation of GST-ATF2 (19-96) with [γ-33P] ATP, JNK2. The format is biochemical. The following applies: 1 nM enzyme, 1 μM ATF2, 8 μM ATP (Km), 30° C. 30 min. As for the experimental part:
JNK activity was measured by phosphorylation of GST-ATF2 (19-96) with [γ-^33P] ATP. […] Human JNK2α2 assay contains 1 nM enzyme, 1 μM ATF2, 8 μM ATP with 1 uCi [γ-^33P] ATP. Human JNK1α1 assay contains 2 nM enzyme, 1 μM ATF2, 6 μM ATP with 1 μCi [γ-^33P] ATP. Human JNK3 (Upstate Biotech #14-501M) assay contains 2 nM enzyme, 1 μM ATF2, 4 μM ATP with 1 μCi [γ-^33P] ATP. The enzyme assay was carried out in the presence or absence of several compound concentrations. JNK and compound were pre-incubated for 10 min., followed by initiation of the enzymatic reaction by adding ATP and the substrate. The reaction mixture was incubated at 30° C. for 30 min. At the end of incubation, the reaction was terminated by transferring 25 μl of the reaction mixture to 150 μl of 10% glutathione Sepharose® slurry (Amersham #27-4574-01) containing 135 mM EDTA. The reaction product was captured on the affinity resin, and washed on a filtration plate (Millipore, MABVNOB50) with phosphate buffered saline for six times to remove free radionucleotide. The incorporation of ^33P into ATF2 was quantified on a microplate scintillation counter (Packard Topcount). Compound inhibition potency on JNK was measured by IC50 value generated from ten concentration inhibition curves fitted into the 3-parameter model: % inhibition=Maximum/(1+(IC50/[Inhibitor])^slope). Data were analyzed on Microsoft Excel for parameter estimation.

Sequence of Human JNK1α1 (P45983 other isoform, or with tags, fused parts or gaps): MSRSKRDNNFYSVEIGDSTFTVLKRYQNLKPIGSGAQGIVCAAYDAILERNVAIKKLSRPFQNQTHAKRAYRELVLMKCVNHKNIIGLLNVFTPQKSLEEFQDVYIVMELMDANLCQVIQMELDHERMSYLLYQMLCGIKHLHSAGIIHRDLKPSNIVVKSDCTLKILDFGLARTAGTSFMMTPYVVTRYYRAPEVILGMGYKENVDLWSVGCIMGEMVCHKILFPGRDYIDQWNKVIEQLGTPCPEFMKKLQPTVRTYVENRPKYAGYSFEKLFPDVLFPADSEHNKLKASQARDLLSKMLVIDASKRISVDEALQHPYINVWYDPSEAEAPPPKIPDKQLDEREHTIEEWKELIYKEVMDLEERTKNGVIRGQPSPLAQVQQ
Sequence of Human JNK2α2 (P45984 whole entry): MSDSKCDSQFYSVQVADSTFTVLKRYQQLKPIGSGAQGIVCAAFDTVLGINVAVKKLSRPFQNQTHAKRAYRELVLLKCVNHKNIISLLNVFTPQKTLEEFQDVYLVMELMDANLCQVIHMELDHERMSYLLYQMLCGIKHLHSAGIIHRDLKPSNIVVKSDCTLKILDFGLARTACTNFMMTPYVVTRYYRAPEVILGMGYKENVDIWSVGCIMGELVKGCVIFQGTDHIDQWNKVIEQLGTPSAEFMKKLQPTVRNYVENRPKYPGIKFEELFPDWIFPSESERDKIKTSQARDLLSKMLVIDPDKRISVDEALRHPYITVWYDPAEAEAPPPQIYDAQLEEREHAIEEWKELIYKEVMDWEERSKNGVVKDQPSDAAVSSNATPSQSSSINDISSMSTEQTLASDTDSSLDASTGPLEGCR

In the case of `O[C@H]1CC[C@H](Nc2nccc(-n3ccc4c(N5CCCCC5)cccc43)n2)CC1` [Compound I-2, 4-[4-(4-Piperidin-1-yl-indol-1-yl)-pyrimidin-2-ylamino]-cyclohexanol], the IC50 came to 0.0939 µM in experiment [1] and 0.654 µM in experiment [2].

As to `CS(=O)(=O)N[C@H]1CC[C@H](Nc2nccc(-n3ccc4c(N5CCC(O)CC5)cccc43)n2)CC1` [Compound I-4, N-(4-{4-[4-(4-Hydroxy-piperidin-1-yl)-indol-1-yl]-pyrimidin-2-ylamino}-cyclohexyl)-methanesulfonamide], the IC50 in experiment [1] came out at 0.0429 µM; in experiment [2] it was 0.292 µM.

For the compound `CC(=O)N1CCN(c2cccc3c2ccn3-c2ccnc(N[C@H]3CC[C@H](N(C)S(C)(=O)=O)CC3)n2)CC1` [Compound I-5, N-(4-{4-[4-(4-Acetyl-piperazin-1-yl)-indol-1-yl]-pyrimidin-2-ylamino}-cyclohexyl)-N-methyl-methanesulfonamide], the figures for the IC50 in experiment [1] and in experiment [2] were 0.0103 µM and 0.105 µM, respectively.

Regarding `CS(=O)(=O)N[C@H]1CC[C@H](Nc2nccc(-n3ccc4c(N5CCC(S(C)(=O)=O)CC5)cccc43)n2)CC1` [Compound I-6, N-(4-{4-[4-(4-Methanesulfonyl-piperidin-1-yl)-indol-1-yl]-pyrimidin-2-ylamino}-cyclohexyl)-methanesulfonamide], the IC50 in experiment [1] was 0.003 µM; in experiment [2] it was 0.0235 µM.

As to `CS(=O)(=O)N[C@H]1CC[C@H](Nc2nccc(-n3ccc4c(N5CCN(C(=O)CC#N)CC5)cccc43)n2)CC1` [Compound I-9, N-[4-(4-{4-[4-(2-Cyano-acetyl)-piperazin-1-yl]-indol-1-yl}-pyrimidin-2-ylamino)-cyclohexyl]-methanesulfonamide], the half-maximal inhibitory concentration (IC50) in experiment [1] stood at 0.0054 µM; in experiment [2] it was 0.0362 µM.

Consider `CC(=O)OCC(=O)N1CCN(c2cccc3c2ccn3-c2ccnc(N[C@H]3CC[C@H](NS(C)(=O)=O)CC3)n2)CC1` [Compound I-10, Acetic acid 2-(4-{1-[2-(4-methanesulfonylamino-cyclohexylamino)-pyrimidin-4-yl]-1H-indol-4-yl}-piperazin-1-yl)-2-oxo-ethyl ester], for which the IC50 in experiment [1] amounted to 0.0104 µM; in experiment [2], 0.0749 µM.

In the case of `CC(=O)N[C@H]1CC[C@H](Nc2nccc(-n3ccc4c(N5CCC(S(C)(=O)=O)CC5)cccc43)n2)CC1` [Compound I-13, N-(4-{4-[4-(4-Methanesulfonyl-piperidin-1-yl)-indol-1-yl]-pyrimidin-2-ylamino}-cyclohexyl)-acetamide], the results for the IC50 in experiment [1] and in experiment [2] were 0.0066 µM and 0.0493 µM, respectively.

`CC(C)(O)[C@H]1CC[C@H](Nc2nccc(-n3ccc4c(N5CCC(S(C)(=O)=O)CC5)cccc43)n2)CC1` [Compound I-14, 2-(4-{4-[4-(4-Methanesulfonyl-piperidin-1-yl)-indol-1-yl]-pyrimidin-2-ylamino}-cyclohexyl)-propan-2-ol]: the IC50 was 0.003 µM in experiment [1] and 0.0192 µM in experiment [2].

As for `CN(C)S(=O)(=O)N[C@H]1CC[C@H](Nc2nccc(-n3ccc4c(N5CCC(S(C)(=O)=O)CC5)cccc43)n2)CC1` [Compound I-15, [4-{4-[4-(4-Methanesulfonyl-piperidin-1-yl)-indol-1-yl]-pyrimidin-2-ylamino}-cyclohexyl]aminodimethylsulfonamide], the IC50 is 0.0036 µM in experiment [1] and 0.0208 µM in experiment [2].

Regarding `CC(=O)N1CCN(c2cccc3c2ccn3-c2ccnc(N[C@H]3CC[C@H](C(=O)N4CCC(O)CC4)CC3)n2)[C@H](C)C1` [Compound I-21, 1-[(R)-4-(1-{2-[4-(4-Hydroxy-piperidine-1-carbonyl)-cyclohexylamino]-pyrimidin-4-yl}-1H-indol-4-yl)-3-methyl-piperazin-1-yl]-ethanone], the values for the concentration for half-maximal inhibition (IC50) in experiment [1] and in experiment [2] were 0.0312 µM and 0.138 µM, respectively.

On to `CC(C)(C)OC(=O)NCC(=O)N1CCN(c2cccc3c2ccn3-c2ccnc(N[C@H]3CC[C@H](NS(C)(=O)=O)CC3)n2)CC1` [Compound I-22, [2-(4-{1-[2-(4-Methanesulfonylamino-cyclohexylamino)-pyrimidin-4-yl]-1H-indol-4-yl}-piperazin-1-yl)-2-oxo-ethyl]-carbamic acid tert-butyl ester], for which the IC50 in experiment [1] was determined as 0.0036 µM; in experiment [2], 0.0264 µM.

Consider `CN(C)CC(=O)N1CCN(c2cccc3c2ccn3-c2ccnc(N[C@H]3CC[C@H](NS(C)(=O)=O)CC3)n2)CC1` [Compound I-23, N-[4-(4-{4-[4-(2-Dimethylamino-acetyl)-piperazin-1-yl]-indol-1-yl}-pyrimidin-2-ylamino)-cyclohexyl]-methanesulfonamide], for which the IC50 in experiment [1] turned out to be 0.378 µM; in experiment [2], 1.63 µM.

As for `CS(=O)(=O)N[C@H]1CC[C@H](Nc2nccc(-n3ccc4c(N5CCN(C(=O)CN)CC5)cccc43)n2)CC1` [Compound I-24, N-[4-(4-{4-[4-(2-Amino-acetyl)-piperazin-1-yl]-indol-1-yl}-pyrimidin-2-ylamino)-cyclohexyl]-methanesulfonamide], the IC50 in experiment [1] turned out to be 0.0777 µM; in experiment [2] it was 0.477 µM.

With `N#CCC(=O)N1CCN(c2cccc3c2ccn3-c2ccnc(N[C@H]3CC[C@H](CN4CC[C@@H](O)C4)CC3)n2)CC1` [Compound I-25, 3-[4-(1-{2-[4-((R)-3-Hydroxy-pyrrolidin-1-ylmethyl)-cyclohexylamino]-pyrimidin-4-yl}-1H-indol-4-yl)-piperazin-1-yl]-3-oxo-propionitrile], the IC50 was found to be 0.0042 µM in experiment [1] and 0.0256 µM in experiment [2].

Turning to `CN(C)CCN([C@H]1CC[C@H](Nc2nccc(-n3ccc4c(N5CCN(C(=O)CC#N)CC5)cccc43)n2)CC1)S(C)(=O)=O` [Compound I-26, N-[4-(4-{4-[4-(2-Cyano-acetyl)-piperazin-1-yl]-indol-1-yl}-pyrimidin-2-ylamino)-cyclohexyl]-N-(2-dimethylamino-ethyl)-methanesulfonamide], the IC50 was determined as 0.0037 µM in experiment [1] and 0.0246 µM in experiment [2].

Turning to `CC(=O)N1CCN(c2cccc3c2ccn3-c2ccnc(NC3CCCCC3)n2)CC1` [Compound I-37, 1-{4-[1-(2-Cyclohexylamino-pyrimidin-4-yl)-1H-indol-4-yl]-piperazin-1-yl}-ethanone], the IC50 in experiment [1] turned out to be 0.0484 µM; in experiment [2], 4.03 µM.

As to `CC(=O)N1CCN(c2cccc3c2ccn3-c2ccnc(N[C@H]3CC[C@H](CS(C)(=O)=O)CC3)n2)CC1` [Compound I-41, 1-(4-{1-[2-(4-Methanesulfonylmethyl-cyclohexylamino)-pyrimidin-4-yl]-1H-indol-4-yl}-piperazin-1-yl)-ethanone], the IC50 in experiment [1] came to 0.025 µM; in experiment [2] it was 0.164 µM.

With `N#CCC(=O)N1CCN(c2cccc3c2ccn3-c2ccnc(N[C@H]3CC[C@@H](O)C3)n2)CC1` [Compound I-58, 3-(4-{1-[2-((1S,3R)-3-Hydroxy-cyclopentylamino)-pyrimidin-4-yl]-1H-indol-4-yl}-piperazin-1-yl)-3-oxo-propionitrile], the half-maximal inhibitory concentration (IC50) in experiment [2] turned out to be 0.806 µM.

For the compound `N#CCC(=O)N1CCN(c2cccc3c2ccn3-c2ccnc(N[C@@H]3CC[C@H](O)C3)n2)CC1` [Compound I-59, 3-(4-{1-[2-((1R,3S)-3-Hydroxy-cyclopentylamino)-pyrimidin-4-yl]-1H-indol-4-yl}-piperazin-1-yl)-3-oxo-propionitrile], the IC50 in experiment [2] was 0.57 µM.

With `N#CCC(=O)N1CCN(c2cccc3c2ccn3-c2ccnc(N[C@H]3CC[C@H](O)C3)n2)CC1` [Compound I-60, 3-(4-{1-[2-((1S,3S)-3-Hydroxy-cyclopentylamino)-pyrimidin-4-yl]-1H-indol-4-yl}-piperazin-1-yl)-3-oxo-propionitrile], in experiment [2], the IC50 turned out to be 0.15 µM.

The compound `N#CCC(=O)N1CCN(c2cccc3c2ccn3-c2ccnc(N[C@@H]3CC[C@@H](O)C3)n2)CC1` [Compound I-61, 3-(4-{1-[2-((1R,3R)-3-Hydroxy-cyclopentylamino)-pyrimidin-4-yl]-1H-indol-4-yl}-piperazin-1-yl)-3-oxo-propionitrile] had an IC50 in experiment [2] of 0.105 µM.

In experiment [2], `CC(=O)N1CCN(c2cccc3c2c(C(N)=O)cn3-c2ccnc(N[C@H]3CC[C@H](CS(C)(=O)=O)CC3)n2)CC1` [Compound I-64, 4-(4-Acetyl-piperazin-1-yl)-1-[2-(4-methanesulfonylmethyl-cyclohexylamino)-pyrimidin-4-yl]-1H-indole-3-carboxylic acid amide] gave an IC50 of 0.0139 µM.
